One series deals with MB-468. In words: Cell proliferation assay MB-468 (Example 6). It is filed as cell-based. The note with it: cells counted on the sixth day. On the procedure:
(§1) In-vitro assays were performed to assess the cytotoxic impact of AA analogues on breast cancer cell lines (MB-468, MB-453, and T47D), lymphoma cell lines (Raji and OCI-LY10), and glioblastoma multiforme cell line (U87). The three breast cancer cell lines represent three subtypes of breast cancer: triple-negative (MB-468), Her2-positive (MB-453), and hormone receptor positive (T47D).
(§2) The IC50 values obtained for each compound represents the concentration of the tested compound that is needed to decrease the cancer cell count by 50%. Cancer cells were seeded in triplicate at 50,000 cells per well of a 24-well plate in 0.5 ml medium. […] Cells were harvested and counted on the sixth day using a Beckman Coulter counter.

In a further series the test system is MB-453. Briefly: Cell proliferation assay MB-453 (Example 6). It is filed as cell-based. Particulars: cells counted on the sixth day. The method, then:
as §1, §2

The test system of a further series is T47D. In words: Cell proliferation assay T47D (Example 6). Particulars: cells counted on the sixth day. The class given is cell-based. The method, then: as §1, §2
The test system of another series is U87. Briefly: Cell proliferation assay U87 (Example 6). It is filed as cell-based. Particulars: cells counted on the sixth day. The method, then: as §1, §2
A further series deals with Raji. Briefly: Cell proliferation assay Raji (Example 6). It is filed as cell-based. Particulars: cells counted on the sixth day. The method, then: as §1, §2
A further series concerns OCI-LY10. In words: Cell proliferation assay OCI-LY10 (Example 6). The class given is cell-based. The note with it: cells counted on the sixth day. On the procedure: as §1, §2
Series [1] deals with OCI-LY10 B lymphoma cells. Briefly: OCI-LY10 orthotopic murine CNS lymphoma model. It is filed as in vivo. The note with it: for Median Survival (Day) CNS Lymphoma (OCI-LY10): control 35. The method, then: (§3) Female athymic mice (8-10 weeks old and weighing 20-25 g at the beginning of the study) were purchased from Harlan laboratories (Indianapolis, Ind.). They were housed in a temperature-controlled sterilized room (23±2° C.) with a 12-h light/dark cycle and free access to food and water throughout the study.
(§4) Murine brain tumor models were created by intracerebral injection of luciferase-transfected cancer cells in athymic mice under anesthesia using a stereotactic platform. For murine model for CNS lymphoma, 1×10^5 OCI-LY10 B lymphoma cells were used. For murine model for metastatic breast cancer of the brain (MBCB), 1×10^5 MB-468 triple-negative breast cancer cells were used. For murine model for glioblastoma multiforme (GBM), 1.75×10^5 U87 cells were used. Eight-week-old athymic mice underwent a minimum 7-day acclimation/quarantine prior to surgery. Surgery was performed in a laminar flow hood under sterile conditions. Tylenol 300 mg/kg PO was given for analgesia 48 hours before the surgery and continuing 48 hours postoperatively. Anesthesia was achieved by inhalation of 1-2% isoflurane. After the mouse became well anesthetized, it was placed in the Kopf stereotactic instrument. A small amount of BNP antibiotic cream (a mixture of Bacitracin, Neomycin and Polymyxin) was smeared on its eyes to prevent infection and corneal damage during surgery. A strip of soft fabric was placed over the mouse's body and tail to prevent excessive heat loss during surgery. The scalp area was cleaned with a 2% solution of Betadine and dried with cotton tipped applicator. A midline sagittal incision was made in the scalp. A small burr hole was drilled in the left skull with a surgical drill (Kopf) or a Dremel drill according to the coordinates (AP: 0.5 mm, LM: 2.5 mm) as determined by reference to the mouse brain atlas by Franklin and Paxinos. The dura mater was surgically exposed, and a 10 μl Hamilton syringe with a 26S-gauge beveled needle was lowered into the left cerebral hemisphere up to a depth of 3 mm and 5 μl of tumor cells were slowly infused (0.5 μl/min). The needle was left in place for 5 minutes to prevent reflux and then was slowly removed. The skin was closed with wound clips. The mice recovered from anesthesia and surgery in a warm environment and were not returned to their cages until motor activity returned. Cages were placed on top of a heating pad to minimize the loss of body heat during the recovery. The mice were monitored post-operatively at least twice a day for 5 days or until recovery was complete.
(§5) BLI was used to assess the impact of the treatments on the brain tumor growth. After intracerebral injection of cancer cells, all the mice were subjected to bioluminesence imaging (BLI) twice a week starting at day-4 post-intracerebral injection to monitor the real-time in vivo tumor growth. BLI was conducted using a Xenogen Lumina optical imaging system (Caliper Life Sciences, Hopkinton, Mass.). Mice were anesthetized with isofluorane before intraperitoneal injections of luciferin at a dose of 150 mg/kg, providing a saturating substrate concentration for luciferase enzyme. Peak luminescent signals were recorded 10 minutes after luciferin injection. Regions of interest encompassing the intracranial area of signal were defined using Living Image software (Xenogen, Alameda, Calif.), and the total photons/s/steradian/cm2 was recorded.
(§6) Five mice each were assigned to one of seven treatment groups or one vehicle control group for all three brain tumor models. Mice in experimental groups received either 2.5 mg/kg or 5 mg/kg of AA, CEAA, or DCEAA by intraperitoneal route daily for 4 days. For CAA, only 2.5 mg/Kg by intraperitoneal route daily for 4 days was used. The control group received DMSO by intraperitoneal route for 4 days. The end point for the survival analysis was the development of limb paralysis. Animals were checked at least twice per day. Animals that reached the end point were sacrificed by CO2 anesthesia. […]

Series [2] concerns MB-468 triple-negative breast cancer cells. In words: MB-468 orthotopic murine model for metastatic breast cancer of the brain. The class given is in vivo, athymic mice. The note with it: for Median Survival (Day) Breast Cancer (MB-468): control 52. The method, then:
as §3, §4, §5, §6

The subject of the next series is U87 cells. In words: U87 orthotopic murine model for glioblastoma multiforme. The class given is in vivo. Particulars: for Median Survival (Day) GBM (U-87): control 25.5. The method, then:
as §3, §4, §5, §6

The test system of series [3] is DU145 prostate cancer cells. In words: Cytotoxicity, MTT method, DU145. The note with it: read-out: Cytotoxicity (IC50, μM) DU145; MTT, 24 h incubation. On the technique in general: Formazan colour is commonly taken as a measure of viable cells.
Protocol: The cell suspension in the culture medium was plated into each well of 96-well plates (10,000 cells/well/100 μL). After 24 h, testing compounds were added, and then the plates were incubated for an additional 24 h in a humidified atmosphere of 5% CO2 at 37° C. […] The IC50 value was determined by linear interpolation from the growth inhibition curve.
In series [4] the test system is Raji B cells (Burkitt's lymphoma cells). Briefly: Cytotoxicity, cell count, Raji (Example 4). The note with it: read-out: Cytotoxicity (IC50, μM) Raji; cells counted on the third day.
Protocol: (§7) Raji cells and MB-468 cells were purchased from American Tissue Culture (Manassas, Va.). […] Cells were harvested and counted on the third day in a Coulter Particle Counter (Beckman-Coulter Corp.: Brea, Calif.). IC50 values were calculated using GraphPad Prism 5 (GraphPad Software Inc., La Jolla, Calif.).
Series [5] has as its system MB-468 (triple-negative breast cancer cells). In words: Cytotoxicity, cell count, MB-468 (Example 4). The note with it: read-out: Cytotoxicity (IC50, μM) MB-468; cells counted on the third day.
Protocol: as §7
[6] abbreviates: 2.5 mg/kg intraperitoneal daily for 4 days.
The mark [7] stands for this setting: 5 mg/kg intraperitoneal daily for 4 days.
[8] abbreviates: all treatment groups (2.5 or 5 mg/kg i.p. daily for 4 days).

pIC50: −log10 of the molar value. “Also recorded” adds a separate entry of the source.

By pIC50 is commonly meant the IC50 on a negative log10 scale, so that one unit is a factor of ten. High values mean a small IC50, low ones a large IC50. The term IC50 denotes the concentration that inhibits the measured activity by half.

`CN1C(=O)N[C@H]2[C@@H]3NC(=O)c4ccc(Br)n4[C@@H]3C[C@]21O` [AA, agelastatin A, reference compound]: the pIC50 is 5.55 in the series with MB-468; 6.19 in the series with MB-453; 7.26 in the series on T47D; 5.55 in the series with U87; 6.86 with Raji; 6.79 with OCI-LY10. Further, the figures for the “Median Survival (Day) CNS Lymphoma (OCI-LY10)” value in [1] (setting [6]) and in series [1] (setting [7]) were 48.5 days and 46 days, respectively. Besides, in series [1] (5 mg/kg dose level), the “weight loss, OCI-LY10 model” value is “Some weight loss”. In addition, the “survival (Kaplan-Meier) vs control, OCI-LY10 model” value in series [1] (setting [8]) was “significantly prolonged survival; also recorded: prolongation of survival”. For the same molecule, in series [1] (setting [8]), the “tumor growth (BLI) vs control, OCI-LY10 model” value is recorded as “significantly decreased tumor growth; also recorded: significantly slower”. Besides, the results for the “Median Survival (Day) Breast Cancer (MB-468)” value in series [2] (setting [6]) and in series [2] (setting [7]) were 57 days and 60.5 days, respectively. The “weight loss, MB-468 model” value in [2] (5 mg/kg dose level) is listed as “Some weight loss”. In addition, the “survival (Kaplan-Meier) vs control, MB-468 model” value in [2] (setting [8]) was “significantly prolonged survival; also recorded: prolongation of survival”. Also, the “tumor growth (BLI) vs control, MB-468 model” value in [2] (setting [8]) is reported as “significantly decreased tumor growth; also recorded: significantly slower”. In addition, the “Median Survival (Day) GBM (U-87)” value in the series on U87 cells (setting [6]) was 28 days; in the series on U87 cells (setting [7]), 30 days. For the same molecule, the “weight loss, U87 model” value in the series with U87 cells (5 mg/kg dose level) is “Some weight loss”. Further, the “survival (Kaplan-Meier) vs control, U87 model” value in the series on U87 cells (setting [8]) is listed as “significantly prolonged survival; also recorded: prolongation of survival”. In addition, the “tumor growth (BLI) vs control, U87 model” value in the series on U87 cells (setting [8]) was “significantly decreased tumor growth; also recorded: significantly slower”. The figures for the IC50 in [3], in series [4] and in series [5] were 2.3 µM, 0.14 µM and 2.8 µM, respectively.

These data come from patent US9464093B2, “Substituted imidazo[4',5':4,5]cyclopenta[1,2-e]pyrrolo[1,2-a]pyrazines and oxazolo[4',5':4,5]cyclopenta[1,2-e]pyrrolo[1,2-a]pyrazines for treating brain cancer” (Mayo Foundation for Medical Education and Research, priority 2012, dated 2016).
